“Also recorded” adds a separate entry of the source.
What was measured:
[1] = test system: HdhQ111 mouse striatal cells; assay: Mitochondrial length and mitophagosomes by electron microscopy; assay type: cell-based; settings: 3 uM/day for 3 days, EM
Text: The HdhQ7 and HdhQ111 cells were fixed by 2.5% glutaraldehyde in 0.1 M cacodylate buffer. Small pieces of the striata tissue of mice were fixed by immersion in triple aldehyde-DMSO. After rinsing in 0.1 M phosphate buffer (pH 7.3), the samples were post-fixed in ferrocyanide-reduced osmium tetroxide.
The above fixed samples were rinsed by water followed by overnight soaking in acidified uranyl acetate. After rinsing in distilled water, the blocks were dehydrated in ascending concentrations of ethanol, passed through propylene oxide, and embedded in Poly/Bed resin. Thin sections were sequentially stained with acidified uranyl acetate followed by a modification of Sato's triple lead stain. These sections were examined in a FEI Tecnai Spirit (T12) transmission electron microscope with a Gatan US4000 4kx4k CCD at the Case Western Reserve University EM core facility. Mitochondria from 15 random areas in each group were imaged by an experimenter blind to the experimental groups. The length of mitochondria was measured by NIH Image J software. The number of mitophagosomes per 100 μm^2 was counted. The number of gold particles labelling VCP on mitochondria were quantitated.

[2] = test system: HdhQ7 striatal cells; assay: Total GFP-LC3B protein level; assay type: cell-based, mouse; settings: Flag-VCP + GFP-LC3B, 36 h
Description: Protein concentrations were determined by Bradford assay. Protein was resuspended in Laemmli buffer, loaded on SDS–PAGE, and transferred onto nitrocellulose membranes. Membranes were probed with the indicated antibodies, followed by visualization with ECL. Representative blots have been cropped for presentation. Images of full-size blots are presented in Supplementary Fig. 9. […]
mouse striatal cells were treated with thapsigargin (1μM) or tunicamycin (10μ g/ml) for 16 hours i n the presence or absence of HV -3 (3 µM). GRP78 total protein levels were determined by western blot analysis. Representative blots of three independent experiments are shown. Actin was used here as a loading control. (b) Tw e n t y -four hours of serum starvation was performed in HD mouse striatal cells.
Caspase-3 activity analysis was performed in the indicated groups. Data are mean ± SEM of three independent experiments. (c) Flag-VCP and GFP-LC3B were co-transfected into HdhQ7 striatal cells.
Total lysates were isolated after 36 hours of transfection. The GFP -LC3B levels were examined by western blot analysis. Actin was used as a loading control. Histogram: quantitation of GFP-LC3B total protein level. Data are mean ± SEM of three independent experiments.
(1 picture or pasted object on this page, not shown here)

[3] = LC/MS detection of HV-3 in mouse brain and plasma; assay type: in vivo; settings: LC/MS m/z 506.4
Text: The new figures above and related figure legends have all been added to the revised manuscript. The related discussion has been added on page 17 line 2 and line 5. The methods of ITC and immunoprecipitation with biotin-peptides have been added to the Method section (see pages 21-23) of […]
Comment 3: The in vivo use of TAT-tagged HV-3 peptide lacks essential PK/PD data. What is the PK/PD of the reagent with their osmotic pump delivery? The data in Supplemental Fig. 5B is simply unacceptable, with different background between control and HV-3, and with only a few cells shown and without any quantitation. Is there any long-term toxicity of such delivery? Did they measure adaptive immune response to the HV-3 peptide? And if there is such a response, do the immune reactions rather than inhibition of mHTT-VCP interactions underlying therapeutic effects? Response: For the analysis of PK/PD, we have to subcontract with bio-company. The cost will be a minimum of $80,000. Due to limited funds, we cannot afford such an expensive experiment. Working with the Mass Spectrometry Core Facility at Cleveland Clinic Foundation Research Center, we attempted to determine the concentration of HV-3 after treatment in mice by pump implantation. […]
by protein precipitation methods (see figure below). […]
proteins in mice after treatment. The data seem to be consistent with our findings that HV-3 binds to VCP. Because of current technical constraints to dissociate peptide from the binding proteins, we were not able to test the accurate concentration of the peptide HV-3 in brain tissues and plasma. Therefore, we […]
We would appreciate it if the reviewer could understand.
Based on the reviewer’s comment, in the revised manuscript, we removed the original supplemental […]
Regarding toxicity of HV3, we performed toxicity analysis of HV-3 in mice at Stanford University. […]
ions in positive electrospray ionization and the ion at 5 charged (m/z 506.4) has the highest intensity on the Shimadzu LC/MS 8050. (B) HV-3 at 5 charged (m/z 506.4) in positive electrospray ionization was monitored. […]

## CSCC[C@H](NC(=O)[C@@H](NC(=O)[C@H](CC(C)C)NC(=O)[C@@H](NC(=O)[C@H](Cc1c[nH]cn1)NC(=O)CCCCCNC(=O)[C@H](CCCNC(=N)N)NC(=O)[C@H](CCCNC(=N)N)NC(=O)[C@H](CCCNC(=N)N)NC(=O)[C@H](CCC(N)=O)NC(=O)[C@H](CCCNC(=N)N)NC(=O)[C@H](CCCNC(=N)N)NC(=O)[C@H](CCCCN)NC(=O)[C@H](CCCCN)NC(=O)[C@H](CCCNC(=N)N)NC(=O)CNC(=O)[C@@H](N)Cc1ccc(O)cc1)C(C)C)C(C)C)C(=O)N[C@@H](CS)C(=O)N[C@@H](C)C(=O)N[C@H](C(N)=O)[C@@H](C)O [HV-3]
[1]
  mitochondrial length: increased mitochondrial length
  number of mitophagosomes: reduced this accumulation; also recorded: greatly reduced the accumulation of mitophagosomes
[2]
  total GFP-LC3B protein level: no effect on the total protein level of GFP-LC3B
[3]; mice, pump implantation
  HV-3 in supernatant of plasma after protein precipitation: not detectable
  HV-3 in total brain lysates, plasma and precipitated plasma proteins: can be detected
[3]; mouse brain total lysates without protein precipitation, legend prints HV-3 (1000 nM)
  HV-3 in brain total lysates over time: day, one week and two weeks after treatment

From paper PMC5007466, “VCP recruitment to mitochondria causes mitophagy impairment and neurodegeneration in models of Huntington's disease” (Nature Communications, 2016)
